The values below come from patent publication US9556217B2, “Amphiphilic compounds” (WISCONSIN ALUMNI RESEARCH FOUNDATION, priority 2012, dated 2017).

This assay deals with T1, Bacteriorhodopsin (bR) (Halobacterium salinarum, UniProt P02945).
T1 construct: Frozen aliquots of purple membranes containing bR at 184 μM were thawed at room temperature; endogenous in cells; host or cells: purple membranes (native)
T1 sequence (P02945 14-261 limits assumed): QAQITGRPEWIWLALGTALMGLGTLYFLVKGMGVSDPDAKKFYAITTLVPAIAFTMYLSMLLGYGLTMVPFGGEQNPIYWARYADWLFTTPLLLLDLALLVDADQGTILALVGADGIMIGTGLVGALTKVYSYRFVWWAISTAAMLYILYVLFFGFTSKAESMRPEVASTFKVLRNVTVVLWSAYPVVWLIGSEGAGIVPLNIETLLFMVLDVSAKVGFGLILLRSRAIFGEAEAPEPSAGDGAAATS
Put plainly: Bacteriorhodopsin stability (absorbance at 554 nm). The note with it: 0.2 wt % OTG+1.6 wt % agent, RT; for Maintaining the native structure of bR compared with conventional detergents: absorbance at 554 nm over 20 days. How it is done: bR was extracted from the native purple membrane with 2.0 wt % octyl-β-D-thioglucoside (OTG) (see Bazzacco at al., Biomacromolecules 2009, 10, 3317-3326). Following ultracentrifugation to remove insoluble debris, the bR solution was diluted with amphiphile solutions to give 0.2 wt % OTG+1.6 wt % new agent or DDM. The absorbance of the solutions at 554 nm was measured periodically over 20 days. […] When the assay was conducted at a lower amphiphile concentration, 0.2 wt % OTG+0.8 wt % new agent or DDM, similar results were obtained (FIG. 3).
The procedure for the bR stability assay followed the protocol reported by Bazzacco and coworkers (Biomacromolecules 2009, 10, 3317-3326).
The procedure for the bR stability assay generally followed the reported protocol (Bazzacco et al., Biomacromolecules 2009, 10, 3317-3326). Frozen aliquots of purple membranes containing bR at 184 μM were thawed at room temperature and solubilized by using an octylthioglucoside (OTG) solution for 24 hr at 4° C. in a dark room. For this purpose, OTG (CMC=0.28 wt %) was used at 2.0 wt % in 10 mM sodium phosphate (pH 6.9). Membrane debris was then removed from the solubilized material via ultracentrifugation at 200,000 g at 4° C. for 20 min. The supernatant, including bR protein, was transferred into individual DDM, GLC, or GDN solutions, giving final concentration of OTG: new amphiphiles=0.2 wt %: 0.8 wt % (1:4) or 0.2 wt %:1.6 wt % (1:8). The stability of bR in each solution was monitored by measuring absorbance at 554 nm over 20 days.

`C[C@@H]1CC[C@@]2(OC1)O[C@H]1C[C@H]3[C@@H]4CC=C5C[C@@H](OCCC(CO[C@@H]6OC(CO)[C@@H](O[C@H]7OC(CO)[C@@H](O)C(O)C7O)C(O)C6O)CO[C@@H]6OC(CO)[C@@H](O[C@H]7OC(CO)[C@@H](O)C(O)C7O)C(O)C6O)CC[C@]5(C)[C@H]4CC[C@]3(C)[C@@H]1[C@@H]2C` (stereo partly drawn) [GDN, glyco-diosgenin]: the “Maintaining the native structure of bR compared with conventional detergents” value is “more effective than conventional detergents OTG and DDM”. Also, the “Loss in bR protein integrity after 20 days” value (absorbance at 554 nm) is listed as “negligible loss in protein integrity”.

Regarding `CO[C@@H]1CC[C@@]2(C)[C@H](CC[C@@H]3[C@@H]2CC[C@]2(C)[C@@H]([C@H](C)CCCOCC(C)(CO[C@@H]4OC(CO)C(O[C@@H]5OC(CO)[C@@H](O)[C@H](O)C5O)[C@@H](O)C4O)CO[C@@H]4OC(CO)[C@@H](O[C@H]5OC(CO)[C@@H](O)[C@H](O)C5O)[C@H](O)C4O)CC[C@@H]32)C1` (stereo partly drawn) [GLC-2], the “Maintaining the native structure of bR compared with conventional detergents” value is “more effective than conventional detergents OTG and DDM”.
